Test results reported in article PMC7806715, “Discovery of small molecules targeting the tandem tudor domain of the epigenetic factor UHRF1 using fragment-based ligand discovery” (Scientific Reports, 2021).

Columns and labels:
[1] = target: T1, His6-TTD (UHRF1 tandem Tudor domain) vs. H3K9me3 peptide (Homo sapiens, UniProt Q96T88); test: TR-FRET assay: His6-TTD interaction with H3K9me3 peptide; assay type: biochemical; conditions: EC50 ± S.E.M., n=3; highest concentration tested 1 mM
T1 construct: Using the isolated His6-TTD (aa 123–283) we performed a thermal shift assay; made in house; host or cells: Rosetta (DE3) E. coli, pMCSG7
T1 sequence (Q96T88 123-283): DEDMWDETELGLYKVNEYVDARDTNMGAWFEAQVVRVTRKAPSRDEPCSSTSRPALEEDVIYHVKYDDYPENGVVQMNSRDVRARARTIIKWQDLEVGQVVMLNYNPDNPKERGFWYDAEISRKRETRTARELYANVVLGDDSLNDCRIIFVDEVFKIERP
Method: Finally, the fragment library was screened using a TR-FRET assay to find inhibitors that block the interaction of His6-TTD with H3K9me3 peptide. In this assay, an anti-His6-antibody labeled with Tb cryptate binds to His6-TTD while a streptavidin-d2 acceptor binds to a biotinylated histone H3K9me3 peptide. The binding between His6-TTD and H3K9me3 peptide was measured by the ratio of 665 nm fluorescence (from the d2 acceptor) to 620 nm fluorescence (from the Tb cryptate donor) (Fig. 1D).
The fragment screen was carried out on low volume 384-well white plates (Corning 4512) and the assay was performed at room temperature. […] After 1 h of incubation, the fluorescent signals at 665 nm and 620 nm of each plate were measured by the Tecan Infinite M1000 plate reader (excitation 340 nm, 60 µs lag time, and 500 µs integration time) and the TR-FRET signal was calculated by the ratio of 665 nm/620 nm fluorescent signal. For the fragment screen, on seven of the library plates there were 32-wells of DMSO control, while there were 8-wells of DMSO control in the last plate. […] The only difference was that the final concentration of His6-TTD-PHD was 200 nM, biotin-H3K9me3 peptide was 200 nM for the His6-TTD-PHD TR-FRET assay, while the final concentration of His6-UHRF1-FL was 200 nM and biotin-H3K9me3 peptide was 100 nM for the His6-UHRF1-FL TR-FRET assay. The buffer pH was 7.5 for the His6-TTD-PHD and His6-UHRF1-FL assays.

N-UHRF1 vs. C-UHRF1 = target: T2, N-UHRF1 vs. C-UHRF1 (Homo sapiens, UniProt Q96T88); test: AlphaScreen assay: N-UHRF1 interaction with C-UHRF1 (TTD:PBR); assay type: biochemical; conditions: for EC50 / AlphaScreen (N-UHRF1 vs. C-UHRF1) EC50: EC50 ± S.E.M., n=3, highest concentration tested 1 mM; for inhibition of N-UHRF1:C-UHRF1 interaction by peptide (in words): peptide (1-20) at 50 µM (Fig. S1)
T2 construct: biotinylated-AviTag-N-UHRF1 (containing UBL and TTD, aa 1–285); made in house; host or cells: Rosetta (DE3) E. coli; pMCSG51 (N-UHRF1), pMCSG7 (FLAG-C-UHRF1)
T2 sequence (Q96T88 1-285): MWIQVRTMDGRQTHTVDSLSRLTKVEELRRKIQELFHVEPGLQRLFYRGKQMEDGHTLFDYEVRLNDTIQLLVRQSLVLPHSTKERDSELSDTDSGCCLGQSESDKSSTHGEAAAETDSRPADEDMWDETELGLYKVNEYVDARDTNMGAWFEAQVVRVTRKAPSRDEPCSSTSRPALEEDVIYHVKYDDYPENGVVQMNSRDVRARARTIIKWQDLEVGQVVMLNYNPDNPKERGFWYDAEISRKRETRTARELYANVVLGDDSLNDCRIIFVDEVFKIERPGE
Description: We next turned our attention to screens that reported on functional effects of fragment binding to UHRF1-TTD. UHRF1 can assume two functionally distinct conformations that are favored by different intra-molecular interactions[15],[32]–[35]. UHRF1 assumes a ‘closed’ conformation with diminished E3 ligase activity when the TTD domain interacts with the internal PBR[32]–[35]. To identify compounds that block this internal TTD:PBR interaction, we developed an assay using AlphaScreen (Amplified Luminescent Proximity Homogeneous Assay, Perkin Elmer) technology that detects the interaction between biotinylated-AviTag-N-UHRF1 (containing UBL and TTD, aa 1–285) and FLAG-C-UHRF1 (containing SRA, RING E3 domains and PBR, aa 414–793) (Fig. 1A,C). […] The signal change in each well was calculated relative to DMSO controls on each plate.
The fragment screen was carried out on low volume 384-well white plates (Corning 4512) and the assay was performed at room temperature. First, 5 µl of AlphaScreen buffer (50 mM HEPES, pH = 6.5, 150 mM NaCl, 0.1% Triton X-100, 1 mM DTT) was dispensed by multidrop combi microplate dispenser (Thermo Scientific) and 300 nl of chemical fragment stock (10 mM in DMSO) was added to each well by pintool using Tecan Freedom Evo liquid handler. Next, 3 µl of AlphaScreen reagent mix containing 768 nM of Biotinylated-His-Avitag-N-UHRF1, 768 nM of FLAG-C-UHRF1, 40 µg/ml streptavidin donor beads, and 40 µg/ml Anti-FLAG conjugated acceptor beads (PerkinElmer) was added to each well by multidrop. The final concentration of FLAG-C-UHRF1 was 300 nM, Biotinylated-His-Avitag-N-UHRF1 was 300 nM, Donor/acceptor beads each was 15 µg/ml. In this assay, the biotinylated-AviTag-N-UHRF1 binds to streptavidin-coated donor beads while the FLAG-C-UHRF1 interacts with the anti-FLAG antibody-coated acceptor beads. The final compound concentration was 360 µM. After 1 h of incubation, the AlphaScreen signal of each plate was measured with a Tecan Infinite M1000 plate reader, which uses a high-power laser (680 nm, 750 mW) as the excitation light source for the donor beads and the AlphaScreen filter was used to detect the emission between 520 and 620 nm from the acceptor beads. For the dose-dependent assays for SAR, the final concentrations of N-UHRF1, C-UHRF1, donor, and acceptor beads were the same as fragment screen. The only differences were that the phosphate buffer was used (50 mM sodium phosphate, pH = 7, 150 mM NaCl, 1 mM DTT, and 0.1% Triton-X-100) and the final volume was 10 µL. For the fragment screen, on seven of the library plates there were 32-wells of DMSO control, while there were 8-wells of DMSO control in the last plate.

UHRF1-TTD = target: T3, UHRF1-TTD (Homo sapiens, UniProt Q96T88); test: Thermal shift assay (TSA) of TTD; assay type: binding; conditions: for TSA (ΔTm) at 500 μM / ΔTm at 500 µM: compound at 500 μM, untagged TTD, 150 mM NaCl, mean ± S.D., n=3; for ΔTm at 200 µM: fragment screen, His6-TTD, final compound concentration 200 µM, 300 mM NaCl, read-out: ThermoFluor (ΔTm), fragment screen
T3 construct: Using the isolated His6-TTD (aa 123–283) we performed a thermal shift assay; His6 (N, cleaved yes); made in house; host or cells: Rosetta (DE3) E. coli, pMCSG7
T3 sequence (Q96T88 123-283): T1 sequence (Q96T88 123-283)
Method: We used three different assays in parallel to screen a ~ 2300-fragment library to identify hits that bind to TTD or inhibit its activities. The first screening method was a direct binding assay, which generally serves as the basis for most fragment screening. Using the isolated His6-TTD (aa 123–283) we performed a thermal shift assay (TSA) to determine the change in melting temperature upon fragment binding. The change in protein melting temperature (ΔTm) caused by each fragment was calculated by comparison to the DMSO controls on the same plate.
The fragment screen was carried out on LightCycler 480 Multiwell Plates 384 (Roche). The TSA mix contains 0.15 mg/ml of His6-TTD, 10 × of SYPRO Orange dye (ThermoFisher) in the TSA buffer (50 mM sodium phosphate, pH = 7, 300 mM NaCl). During the screen, 5 µl of TSA mix was dispensed into each well, and 100 nl of chemical fragments stock (10 mM in DMSO) was added to each well by pintool using Tecan Freedom Evo liquid handler to make the final compound concentration 200 µM. After 1 h of incubation at room temperature, the increase of fluorescence at 580 nm (excitation 465 nm) during the 20–90 degree melting (0.04 °C/s) was measured by LightCycler 480 Instrument II (Roche). For the fragment screen, on seven of the library plates there were 32-wells of DMSO control, while there were 8-wells of DMSO control in the last plate. […] Using un-tagged TTD for TSA provide closer resemblance to the native state of TTD. The lower salt concentration (150 mM NaCl) also allowed better comparison across three different assays during the dose-dependent SAR studies as both AlphaScreen and TR-FRET assay also use buffers containing 150 mM NaCl.

N-UHRF1 vs. USP7-UBL1/2 = test: AlphaScreen assay N-UHRF1 vs. USP7-UBL1/2 (other screen); assay type: biochemical; conditions: fragment screen
Description: (§1) F1957-0227 was identified as a hit in two other AlphaScreen assays (N-UHRF1 vs. USP7-UBL1/2 and UHRF1-SRA domain vs. DNMT1-RFTS domain) and in three TSAs against unrelated protein targets (USP7-UBL1/2, UHRF1-SRA domain, and DNMT1-RFTS domain); we concluded that F1957-0227 behaves as a pan-assay interference compound (PAINS)[53] and is thus not suitable for follow-up.

[2] = target: T4, UHRF1-SRA domain vs. DNMT1-RFTS domain (Homo sapiens, UniProt P26358+Q96T88); test: AlphaScreen assay UHRF1-SRA domain vs. DNMT1-RFTS domain (other screen); assay type: biochemical; conditions: fragment screen
T4 construct: UHRF1-SRA domain vs. DNMT1-RFTS domain
T4 sequence (P26358 400-533 limits assumed, one chain of several): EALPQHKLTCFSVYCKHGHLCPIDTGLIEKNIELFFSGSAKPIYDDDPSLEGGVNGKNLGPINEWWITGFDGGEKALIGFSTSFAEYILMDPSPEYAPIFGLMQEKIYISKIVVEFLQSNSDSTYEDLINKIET
Description: as §1

USP7-UBL1/2 = USP7-UBL1/2 (Homo sapiens, UniProt Q93009); test: TSA against USP7-UBL1/2; assay type: binding; conditions: fragment screen
Sequence of USP7-UBL1/2 (Q93009 560-776 limits assumed): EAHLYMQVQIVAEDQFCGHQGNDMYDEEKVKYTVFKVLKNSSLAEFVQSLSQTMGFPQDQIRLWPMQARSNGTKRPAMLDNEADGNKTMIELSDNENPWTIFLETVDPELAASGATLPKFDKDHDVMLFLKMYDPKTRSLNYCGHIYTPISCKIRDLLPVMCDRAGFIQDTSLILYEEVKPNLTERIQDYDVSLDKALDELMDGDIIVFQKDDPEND
Description: as §1

UHRF1-SRA domain = target: T5, UHRF1-SRA domain (Homo sapiens, UniProt Q96T88); test: TSA against UHRF1-SRA domain; assay type: binding; conditions: fragment screen
T5 construct: unrelated protein targets (USP7-UBL1/2, UHRF1-SRA domain, and DNMT1-RFTS domain)
T5 sequence (Q96T88 419-582 limits assumed): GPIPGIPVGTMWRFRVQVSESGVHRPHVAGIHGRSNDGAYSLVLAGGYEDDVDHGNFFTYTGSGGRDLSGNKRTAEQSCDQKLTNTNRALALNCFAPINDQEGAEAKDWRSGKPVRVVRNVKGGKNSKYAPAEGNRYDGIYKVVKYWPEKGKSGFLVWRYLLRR
Description: as §1

DNMT1-RFTS domain = target: T6, DNMT1-RFTS domain (Homo sapiens, UniProt P26358); test: TSA against DNMT1-RFTS domain; assay type: binding; conditions: fragment screen
T6 construct: unrelated protein targets (USP7-UBL1/2, UHRF1-SRA domain, and DNMT1-RFTS domain)
T6 sequence (P26358 400-533 limits assumed): as the sequence (P26358 400-533 limits assumed, one chain of several) above
Description: as §1

| Compound | EC50 [1] [µM] | EC50 (N-UHRF1 vs. C-UHRF1) [µM] | TSA (ΔTm) at 500 μM (UHRF1-TTD) [°C] | further results |
| --- | --- | --- | --- | --- |
| Cc1cc(C)nc(C)c1 [Compound 15] | 47.2 ± 4.9 | > 500 | 1.11 ± 0.06 | – |
| c1cnc2c(c1)NCCN2 [Compound 7, 1,2,3,4-tetrahydropyrido[2,3-b]pyrazine] | > 500 | – | – | AlphaScreen (N-UHRF1 vs. C-UHRF1) EC50 (N-UHRF1 vs. C-UHRF1): 379.8 ± 176.0 µM; ΔTm at 500 µM (UHRF1-TTD): 0.19 ± 0.06 °C |
| Cc1ccnc(Cl)c1 [Compound 9] | – | – | – | TR-FRET (TTD vs. H3K9me3) EC50 [1]: No inhibition; AlphaScreen (N-UHRF1 vs. C-UHRF1) EC50 (N-UHRF1 vs. C-UHRF1): No inhibition |
| H3K9me3 peptide: histone H3 (1–20) peptide trimethylated at Lys9, TTD ligand [reference compound] | – | – | – | inhibition of N-UHRF1:C-UHRF1 interaction by peptide (in words) (N-UHRF1 vs. C-UHRF1): could inhibit |
| Cc1ccnc(N)c1 [Compound 8] | 238 ± 89.1 | 52.6 ± 6.9 | 0.66 ± 0.09 | – |
| Nc1ncc(Br)c2cc[nH]c12 [Compound F1957-0227] | – | – | – | ΔTm at 200 µM (UHRF1-TTD): 2.58 °C; hit call in AlphaScreen N-UHRF1 vs. USP7-UBL1/2 (N-UHRF1 vs. USP7-UBL1/2): hit; hit call in AlphaScreen UHRF1-SRA domain vs. DNMT1-RFTS domain [2]: hit; hit call in TSA against USP7-UBL1/2 (USP7-UBL1/2): hit; hit call in TSA against UHRF1-SRA domain (UHRF1-SRA domain): hit; hit call in TSA against DNMT1-RFTS domain (DNMT1-RFTS domain): hit |
| c1cnc2c(c1)CCCC2 [Compound 6, 5,6,7,8-tetra-hydro-quinoline] | > 500 | – | – | AlphaScreen (N-UHRF1 vs. C-UHRF1) EC50 (N-UHRF1 vs. C-UHRF1): 281.7 ± 227.7 µM; ΔTm at 500 µM (UHRF1-TTD): 0.21 ± 0.06 °C |
| H3K4me3 peptide: histone H3 (1-20) peptide trimethylated at Lys4, negative control [reference compound] | – | – | – | inhibition of N-UHRF1:C-UHRF1 interaction by peptide (in words) (N-UHRF1 vs. C-UHRF1): not |
| c1cnc2c(c1)CCCN2 [Compound 2] | 109 ± 18.2 | 164 ± 33 | 0.75 ± 0.02 | – |
| Cc1cc(C)nc(N)c1 [Compound 12] | 51.9 ± 8.1 | 21.3 ± 3.5 | 1.59 ± 0.06 | – |
| Cc1c(Br)cnc2c1CCCN2 [Compound 3] | 58.5 ± 8.4 | 75.7 ± 14.4 | 0.1 ± 0.06 | – |
| Cc1cc(C)c2c(n1)NCCC2 [Compound F1957-0088] | – | – | – | ΔTm at 500 µM (UHRF1-TTD): 1.52 ± 0.09 °C; ΔTm at 200 µM (UHRF1-TTD): 1.74 °C |
